{"source": "patent US4994472A", "about": "“1-(pyridinylamino)-2-pyrrolidinones as pain relievers” (Hoechst-Roussel Pharmaceuticals Incorporated, priority 1989, dated 1991)", "key": {"[1]": {"test_system": "Scopolamine Induced Memory Deficit", "assay": "Dark Avoidance Assay (reversal of scopolamine induced memory deficit)", "format": "in vivo", "conditions": "mice, retest after 24 hours", "description": "In this assay, mice are tested for their ability to remember an unpleasant stimulus for a period of 24 hours. A mouse is placed in a chamber that contains a dark compartment; a strong incandescent light drives it to the dark compartment, where an electric shock is administered through metal plates on the floor. The animal is removed from the testing apparatus and tested again, 24 hours later, for the ability to remember the electric shock. If scopolamine, an anticholinergic that is known to cause memory impairment, is administered before an animal's initial exposure to the test chambers, the animal re-enters the dark compartment shortly after being placed in the test chamber 24 hours later. The effect of scopolamine is blocked by an active test compound, resulting in a greater interval before re-entry into the dark compartment. The results for an active compound are expressed as the percent of a group of animals in which the effect of scopolamine is blocked, as manifested by an increased interval between being placed in the test chamber and re-entering the dark compartment. The activity in the assay of some of the compounds of the invention are given below in Table 2."}, "[2]": {"test_system": "phenyl-para-quinone induced writhing", "assay": "phenyl-para-quinone writhing assay in mice (analgesia)", "format": "in vivo", "conditions": "20 mg/kg s.c., expressed as % decrease in writhing", "from_the_text": "Exptl. […] Presented in Table I is the analgesic effect of one of the compounds of the invention expressed as the % decrease in writhing at a given dose."}}}
{"smiles": "Nc1c2c(nc3ccccc13)CCCC2", "note": "[Tacrine, reference compound]", "values": [{"measurement": "% of Animals With Scopolamine Induced Memory Deficit Reversal", "setting": "[1]; .63 (mg/kg of body wt) s.c.", "value": 13, "unit": "%"}]}
{"smiles": "CCCN(c1ccncc1)N1CCCC1=O.O=C(O)C(=O)O", "note": "[1-(Propyl-4-pyridinylamino)-2-pyrrolidinone oxalate]", "values": [{"measurement": "% of Animals With Scopolamine Induced Memory Deficit Reversal", "setting": "[1]; .3 mg/kg s.c.", "value": 33, "unit": "%"}]}
{"smiles": "O=C1CCCN1Nc1ccncc1", "note": "[1-(4-pyridinylamino)-2-pyrrolidinone, 1-(4-Pyridinylamino)-2-pyrrolidinone]", "values": [{"measurement": "% Inhibition of Writhing", "setting": "[2]", "value": -56, "unit": "%"}]}
